Read-outs that look alike come from different tables or passages of the source. Square brackets hold non-standard residues; d marks the D form. Peptide text beside a SMILES is read from it. * marks the point of attachment. NH(1-CH2NMe2-cBu) = CN(C)CC1(N*)CCC1; Benzoyl(4-F) = O=C(c1ccc(F)cc1)*; hCha = N[C@@H](CCC1CCCCC1)C(=O)O; Aib = CC(C)(N)C(=O)O; βAla = NCCC(=O)O
Tests used:
[1] = test system: patient derived Basal Cell Carcinoma (BCC); format: cell-based, human; conditions: 500 nM, 4 days, vs DMSO
[2] = test system: B16F10 xenografts in C57BL/6 mice; test: In vivo efficacy test, dermal treatment of intradermal B16-F10 tumours (tumour volume); parameters: species or system mouse; conditions: for T/C [%] (ratio of mean tumour volume of treated over control) / RTV Mean / RTV Median / Tumour Volume [cm^3] Mean / Tumour Volume [cm^3] Median: 20 μl of 5% 6027 dermally daily from day 1; for RTV Mean / RTV Median / Tumour Volume [cm^3] Mean / Tumour Volume [cm^3] Median: n=8
Procedure: In vivo efficacy test methodology. C57Bl/6 mice (Janvier Labs); females; 6-8 weeks old at beginning of the treatment. The tumour was induced through intradermal inoculation of 1×10^5 cells per mouse intradermally in the skin of the neck. A total of 24 mice were used (n=8 for vehicle, n=8 for 5% 6027, n=8 for leucinostatin A 0.2%). Test item was applied starting on day 1 after inoculation of the tumour cells. The test items of 20 μl of 5% 6027 and of 0.2% Leucinostatin A were applied dermally with a pipette once a day every day for up to 21 days to the intact skin area of about 1 cm^2 on the site were the B16-F10 cells had been injected. If ulceration occurred then the animal was removed from the test and sacrificed.
The read out was tumour volume measured three times a week expressed as tumour volume (in cm^3). Additionally, tumour samples were taken for histological analysis (Tumour FFPE) (2 mice per group).

[3] = test system: B16-F10 mouse melanoma cells; test: In vitro cell viability assay on B16-F10; format: cell-based; conditions: B16-F10, 72 hours, resazurin
Procedure: In vitro cell viability assay methodology.
Half maximal inhibitory concentration (IC50) of the compounds was determined by seeding of cell culture into 96 well-plates (Cat #353072, Corning) and treated the day after with dose-escalating concentrations of the compounds (from 0.001 μM to 10 μM in RPMI-1640 complete) for 72 hours. 1000 cells were seeded per well. […] Triplicates were seeded for each condition. […] Vehicle treated wells were set to 100% viability.

[4] = test system: patient derived Basal Cell Carcinoma (BCC); format: cell-based, human; conditions: 4 days, vs DMSO; for cell proliferation (Ki67): p<0.002
From the text: Tumour material was harvested from an infiltrative basal cell carcinoma (BCC) from a patient's nose.

Compound: CC(C)C[C@H](NC(=O)[C@H](CCC1CCCCC1)NC(=O)[C@@H]1CCCN1C(=O)c1ccc(F)cc1)C(=O)NC(C)(C)C(=O)N[C@@H](CC(C)C)C(=O)N[C@@H](CC(C)C)C(=O)NC(C)(C)C(=O)NC(C)(C)C(=O)NCCC(=O)NC1(CN(C)C)CCC1 [Compound 6027, (2S)-2-[(2S)-4-cyclohexyl-2-{[(2S)-1-(4-fluorobenzoyl)pyrrolidin-2-yl]formamido}butanamido]-N-(1-{[(1S)-1-{[(1S)-1-({1-[(1-{[2-({1-[(dimethylamino)methyl]cyclobutyl}carbamoyl)ethyl]carbamoyl}-1-methylethyl)carbamoyl]-1-methylethyl}carbamoyl)-3-methylbutyl]carbamoyl}-3-methylbutyl]carbamoyl}-1-methylethyl)-4-methylpentanamide] ({Benzoyl(4-F)}-P[hCha]L[Aib]LL[Aib][Aib][βAla]-{NH(1-CH2NMe2-cBu)})
- apoptotic cells (TUNEL positive cells) [1]: Significant increase
- cell proliferation (Ki67) [1]: significantly reduced
- T/C [%] (ratio of mean tumour volume of treated over control) ([2]; day 1): 100%
- RTV Mean ([2]; day 1): 1.0
- RTV Median ([2]; day 1): 1.0
- Tumour Volume [cm^3] Mean ([2]; day 1): 0.001 cm^3
- Tumour Volume [cm^3] Median ([2]; day 1): 0.001 cm^3
- T/C [%] (ratio of mean tumour volume of treated over control) ([2]; day 2): 100%
- RTV Mean ([2]; day 2): 1.0
- RTV Median ([2]; day 2): 1.0
- Tumour Volume [cm^3] Mean ([2]; day 2): 0.001 cm^3
- Tumour Volume [cm^3] Median ([2]; day 2): 0.001 cm^3
- T/C [%] (ratio of mean tumour volume of treated over control) ([2]; day 4): 100%
- RTV Mean ([2]; day 4): 1.0
- RTV Median ([2]; day 4): 1.0
- Tumour Volume [cm^3] Mean ([2]; day 4): 0.001 cm^3
- Tumour Volume [cm^3] Median ([2]; day 4): 0.001 cm^3
- T/C [%] (ratio of mean tumour volume of treated over control) ([2]; day 7): 71%
- RTV Mean ([2]; day 7): 8.8
- RTV Median ([2]; day 7): 9.0
- Tumour Volume [cm^3] Mean ([2]; day 7): 0.009 cm^3
- Tumour Volume [cm^3] Median ([2]; day 7): 0.009 cm^3
- T/C [%] (ratio of mean tumour volume of treated over control) ([2]; day 9): 64%
- RTV Mean ([2]; day 9): 28.4
- RTV Median ([2]; day 9): 25.5
- Tumour Volume [cm^3] Mean ([2]; day 9): 0.028 cm^3
- Tumour Volume [cm^3] Median ([2]; day 9): 0.026 cm^3
- T/C [%] (ratio of mean tumour volume of treated over control) ([2]; day 10): 35%
- RTV Mean ([2]; day 10): 29.9
- RTV Median ([2]; day 10): 25.5
- Tumour Volume [cm^3] Mean ([2]; day 10): 0.030 cm^3
- Tumour Volume [cm^3] Median ([2]; day 10): 0.026 cm^3
- T/C [%] (ratio of mean tumour volume of treated over control) ([2]; day 11): 33%
- RTV Mean ([2]; day 11): 44.6
- RTV Median ([2]; day 11): 31.0
- Tumour Volume [cm^3] Mean ([2]; day 11): 0.045 cm^3
- Tumour Volume [cm^3] Median ([2]; day 11): 0.031 cm^3
- reduction of tumour growth ([2]; topical treatment with 5% 6027 vs vehicle): significant reduction of tumour growth
- IC50 [3]: 208 nM
- apoptotic cells (TUNEL staining) ([4]; 500 nM): Significant increase
- cell proliferation (Ki67) ([4]; 500 nM): significantly reduced
- cell proliferation (Ki67) ([4]; 1 μM): significantly reduced
- apoptotic cells (TUNEL staining) [4]: Significant increase

— patent US20260049101A1, “TOPICAL TREATMENT OF SKIN CANCER USING OLIGOPEPTIDES” (BACOBA AG, priority 2022, published 2026)
